Patent US20020137929A1, “1 - (3-heterocyclylphenyl) isothiourea, -isourea, -guanidine and -amidine herbicidal agents” (Intellectual Property Department, BASF Aktiengesellschaft, priority 1998, published 2002)

Experiments:
[1] = tested on: SAGPY (Arrowhead (Pygmaea)); assay: Postemergence weed control under flooded paddy conditions; assay type: in vivo, Sagittaria pygmaea; details: postemergence weeds, 3-4 weeks after treatment
How it was run: (§1)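 Containers holding 3–5 cm weeds and rice at 1.5–2.5 leaves are flooded to 1.5–3 cm above soil. Compound in 50/50 v/v aqueous/acetone is then added directly to the water, about 0.0313–0.500 kg/ha. Plants are kept in the greenhouse and rated 0–9 visually at 3–4 weeks.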

ECHCG (Barnyardgrass) = assay: Preemergence herbicidal evaluation; assay type: in vivo, Echinochloa crus-galli; details: rated 4-5 weeks after treatment
How it was run: (§2)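 Seeds were mixed with potting soil and planted on about one inch of soil, then sprayed with test compound in aqueous acetone at about 0.0156 to 0.500 kg per hectare. Plants grew under standard greenhouse care and were visually rated 0-9 against untreated controls 4-5 weeks post-treatment.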

ZEAMX (Corn, Field) [2] = assay: Postemergence herbicidal evaluation; assay type: in vivo, Zea mays; details: postemergence
How it was run: (§3)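 Compound is applied as a foliar spray to seedlings about two weeks old, formulated in equal parts acetone and water with 0.5% TWEEN 20 and delivered at 40 psi to give about 0.0156–0.500 kg per hectare. Injury is rated visually 0–9 after four to five weeks.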

[3] = tested on: ECHORC (Watergrass (Calif.)); assay: Postemergence weed control under flooded paddy conditions; assay type: in vivo, Echinochloa oryzoides; details: postemergence weeds, 3-4 weeks after treatment
How it was run: as §1

CYPSE (Flatsedge) [4] = assay: as above; assay type: in vivo, Cyperus serotinus; details: postemergence weeds, 3-4 weeks after treatment
How it was run: as §1

CYPIR (Rice Flatsedge) [5] = assay: as above; assay type: in vivo, Cyperus iria; details: postemergence weeds, 3-4 weeks after treatment
How it was run: as §1

ZEAMX (Corn, Field) [6] = assay: Preemergence herbicidal evaluation; assay type: in vivo, Zea mays; details: rated 4-5 weeks after treatment
How it was run: as §2

ORYSAT (Rice, Tebonnet) = assay: Postemergence herbicidal evaluation; assay type: in vivo, Oryza sativa, (L.) Tebonnet; details: postemergence
How it was run: as §3

CYPIR (Rice Flatsedge) [7] = assay: Preemergence weed control under flooded paddy conditions; assay type: in vivo, Cyperus iria; details: rated 3-4 weeks after treatment
How it was run: (§4)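 Silt loam, seeds in top 0.5 cm; flood held 1.5-3 cm; test cpd as acetone/water 50/50 into flood water, ~0.0313-0.500 kg/ha a.i.; greenhouse 3-4 wk; visual 0-9 score vs control.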

[8] = tested on: TRZAWR (Wheat, Winter, cv Riband); assay: Preemergence herbicidal evaluation; assay type: in vivo, Triticum aestivum; details: rated 4-5 weeks after treatment
How it was run: as §2

SETVI (Foxtail, Green) [9] = assay: Preemergence herbicidal evaluation; assay type: in vivo, Setaria viridis; details: rated 4-5 weeks after treatment
How it was run: as §2

CYPSE (Flatsedge) [10] = assay: Preemergence weed control under flooded paddy conditions; assay type: in vivo, Cyperus serotinus; details: rated 3-4 weeks after treatment
How it was run: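 First, seeds or propagules go into the top 0.5 cm of silt loam; next, water is held 1.5 to 3 cm over the soil; then compound (50/50 acetone/water) is pipetted into it at about 0.0313 to 0.500 kg/ha; finally plants are rated visually 0-9 after three to four weeks.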

SETVI (Foxtail, Green) [11] = assay: Postemergence herbicidal evaluation; assay type: in vivo, Setaria viridis; details: postemergence
How it was run: as §3

[12] = tested on: ECHORC (Watergrass (Calif.)); assay: Preemergence weed control under flooded paddy conditions; assay type: in vivo, Echinochloa oryzoides; details: rated 3-4 weeks after treatment
How it was run: as §4

CCOC(=O)/C=C1/S/C(=N/c2cc(-n3c(=O)cc(C(F)(F)F)n(C)c3=O)c(F)cc2Cl)N(CC(=O)OCC)C1=O [Compound 14]
Herbicidal rating SAGPY ([1]; rate 0.0313 kg/ha): 0.0 | Herbicidal rating SAGPY ([1]; rate 0.0625 kg/ha): 0.0 | Herbicidal rating SAGPY ([1]; rate 0.1250 kg/ha): 0.0 | Herbicidal rating SAGPY ([1]; rate 0.2500 kg/ha): 0.0 | ECHCG preemergence herbicidal rating (ECHCG (Barnyardgrass); rate 0.0313 kg/ha): 0.0 | ECHCG preemergence herbicidal rating (ECHCG (Barnyardgrass); rate 0.0625 kg/ha): 0.0 | ECHCG preemergence herbicidal rating (ECHCG (Barnyardgrass); rate 0.1250 kg/ha): 1.0 | ECHCG preemergence herbicidal rating (ECHCG (Barnyardgrass); rate 0.2500 kg/ha): 3.0 | ECHCG preemergence herbicidal rating (ECHCG (Barnyardgrass); rate 0.5000 kg/ha): 6.0 | ZEAMX herbicidal rating (ZEAMX (Corn, Field) [2]; rate 0.0156 kg/ha): 7.0 | ZEAMX herbicidal rating (ZEAMX (Corn, Field) [2]; rate 0.0313 kg/ha): 7.0 | ZEAMX herbicidal rating (ZEAMX (Corn, Field) [2]; rate 0.0625 kg/ha): 7.5 | ZEAMX herbicidal rating (ZEAMX (Corn, Field) [2]; rate 0.1250 kg/ha): 7.5 | Herbicidal rating ECHORC ([3]; rate 0.0313 kg/ha): 0.8 | Herbicidal rating ECHORC ([3]; rate 0.0625 kg/ha): 2.3 | Herbicidal rating ECHORC ([3]; rate 0.1250 kg/ha): 3.8 | Herbicidal rating ECHORC ([3]; rate 0.2500 kg/ha): 7.0 | Herbicidal rating CYPSE (CYPSE (Flatsedge) [4]; rate 0.0313 kg/ha): 0.0 | Herbicidal rating CYPSE (CYPSE (Flatsedge) [4]; rate 0.0625 kg/ha): 0.0 | Herbicidal rating CYPSE (CYPSE (Flatsedge) [4]; rate 0.1250 kg/ha): 1.5 | Herbicidal rating CYPSE (CYPSE (Flatsedge) [4]; rate 0.2500 kg/ha): 0.0 | Herbicidal rating CYPIR (CYPIR (Rice Flatsedge) [5]; rate 0.0313 kg/ha): 4.0 | Herbicidal rating CYPIR (CYPIR (Rice Flatsedge) [5]; rate 0.0625 kg/ha): 5.8 | Herbicidal rating CYPIR (CYPIR (Rice Flatsedge) [5]; rate 0.1250 kg/ha): 6.8 | Herbicidal rating CYPIR (CYPIR (Rice Flatsedge) [5]; rate 0.2500 kg/ha): 4.5 | ZEAMX preemergence herbicidal rating (ZEAMX (Corn, Field) [6]; rate 0.0313 kg/ha): 0.0 | ZEAMX preemergence herbicidal rating (ZEAMX (Corn, Field) [6]; rate 0.0625 kg/ha): 0.0 | ZEAMX preemergence herbicidal rating (ZEAMX (Corn, Field) [6]; rate 0.1250 kg/ha): 1.5 | ZEAMX preemergence herbicidal rating (ZEAMX (Corn, Field) [6]; rate 0.2500 kg/ha): 2.0 | ZEAMX preemergence herbicidal rating (ZEAMX (Corn, Field) [6]; rate 0.5000 kg/ha): 3.0 | ORYSAT herbicidal rating (ORYSAT (Rice, Tebonnet); rate 0.0156 kg/ha): 3.5 | ORYSAT herbicidal rating (ORYSAT (Rice, Tebonnet); rate 0.0313 kg/ha): 5.5 | ORYSAT herbicidal rating (ORYSAT (Rice, Tebonnet); rate 0.0625 kg/ha): 6.0 | ORYSAT herbicidal rating (ORYSAT (Rice, Tebonnet); rate 0.1250 kg/ha): 8.5 | Herbicidal rating CYPIR (CYPIR (Rice Flatsedge) [7]; 0.0313 kg/ha): 2.0 | Herbicidal rating CYPIR (CYPIR (Rice Flatsedge) [7]; 0.0625 kg/ha): 2.5 | Herbicidal rating CYPIR (CYPIR (Rice Flatsedge) [7]; 0.1250 kg/ha): 4.5 | Herbicidal rating CYPIR (CYPIR (Rice Flatsedge) [7]; 0.2500 kg/ha): 0.0 | TRZAWR preemergence herbicidal rating ([8]; rate 0.0313 kg/ha): 0.0 | TRZAWR preemergence herbicidal rating ([8]; rate 0.0625 kg/ha): 0.0 | TRZAWR preemergence herbicidal rating ([8]; rate 0.1250 kg/ha): 0.0 | TRZAWR preemergence herbicidal rating ([8]; rate 0.2500 kg/ha): 0.0 | SETVI preemergence herbicidal rating (SETVI (Foxtail, Green) [9]; rate 0.0313 kg/ha): 0.5 | SETVI preemergence herbicidal rating (SETVI (Foxtail, Green) [9]; rate 0.0625 kg/ha): 0.5 | SETVI preemergence herbicidal rating (SETVI (Foxtail, Green) [9]; rate 0.1250 kg/ha): 6.5 | SETVI preemergence herbicidal rating (SETVI (Foxtail, Green) [9]; rate 0.2500 kg/ha): 9.0 | SETVI preemergence herbicidal rating (SETVI (Foxtail, Green) [9]; rate 0.5000 kg/ha): 9.0 | Herbicidal rating CYPSE (CYPSE (Flatsedge) [10]; 0.0313 kg/ha): 0.0 | Herbicidal rating CYPSE (CYPSE (Flatsedge) [10]; 0.0625 kg/ha): 0.0 | Herbicidal rating CYPSE (CYPSE (Flatsedge) [10]; 0.1250 kg/ha): 3.0 | Herbicidal rating CYPSE (CYPSE (Flatsedge) [10]; 0.2500 kg/ha): 0.0 | SETVI herbicidal rating (SETVI (Foxtail, Green) [11]; rate 0.0156 kg/ha): 7.0 | SETVI herbicidal rating (SETVI (Foxtail, Green) [11]; rate 0.0313 kg/ha): 8.0 | SETVI herbicidal rating (SETVI (Foxtail, Green) [11]; rate 0.0625 kg/ha): 9.0 | SETVI herbicidal rating (SETVI (Foxtail, Green) [11]; rate 0.1250 kg/ha): 9.0 | Herbicidal rating ECHORC ([12]; 0.0313 kg/ha): 1.5 | Herbicidal rating ECHORC ([12]; 0.0625 kg/ha): 4.5 | Herbicidal rating ECHORC ([12]; 0.1250 kg/ha): 7.5 | Herbicidal rating ECHORC ([12]; 0.2500 kg/ha): 9.0
